For orientation: IC50 means the concentration that inhibits the measured activity by half. The term inhibition denotes the change of the read-out against control, counted positive when it falls. A lower inhibition goes with a weak effect.

Consider 23 compounds from ChEMBL document CHEMBL2086238, “Identification of ETP-46321, a potent and orally bioavailable PI3K α, δ inhibitor” (Bioorg Med Chem Lett, 2012).

The target of data set [1] is PI3-kinase p110-alpha/p85-alpha (Homo sapiens, UniProt P42336). Kind of data set: Inhibition of human PI3Kalpha (p110alpha/p85alpha) by ADP accumulation based HTRF assay. The conditions noted are these: for Ki: read-out: Ki(app). In kind it is protein-complex assay. Background: In TR-FRET formats the signal depends on donor and acceptor labels being close together.
Data set [2] deals with Phosphatidylinositol 4,5-bisphosphate 3-kinase catalytic subunit alpha isoform (Homo sapiens, UniProt P42336). The data set can be described thus: Inhibition of PI3Kalpha in human U2OS cells assessed as inhibition of AKT Ser 473 phosphorylation by Western blot. In kind it is cell-based. In general terms: Immunoblotting shows a protein as a band on a membrane.
The target of data set [3] is PI3-kinase p110-delta/p85-alpha (Homo sapiens, UniProt O00329). Kind of data set: Inhibition of human PI3Kdelta (p110delta/p85alpha) by ADP accumulation based HTRF assay. The conditions noted are these: read-out: Ki(app). In kind it is protein-complex assay.
A short description of data set [4]: Stability in mouse liver microsomes at 1 uM incubated for 15 mins. It counts as ADME, Microsome. The conditions noted are these: read-out: Stability.
In data set [5] the target is CYP3A4 (Homo sapiens, UniProt P08684). Kind of data set: Inhibition of CYP3A4 at 10 uM. It counts as ADME.
The target of data set [6] is CYP2C9 (Homo sapiens, UniProt P11712). Kind of data set: Inhibition of CYP2C9 at 10 uM. It counts as ADME.
The target in data set [7] is PI3K p110 beta/p85 alpha (Homo sapiens, UniProt P42338). Kind of data set: Inhibition of human PI3Kbeta (p110beta/p85alpha) by ADP accumulation based HTRF assay. It counts as protein-complex assay. The conditions noted are these: read-out: Ki(app).
Data set [8] has as its target CYP2D6 (Homo sapiens, UniProt P10635). Kind of data set: Inhibition of CYP2D6 at 10 uM. In kind it is ADME.
Data set [9] can be described thus: Stability in human liver microsomes at 1 uM incubated for 15 mins. The conditions noted are these: read-out: Stability. In kind it is ADME, Microsome. (In general: Microsomes from liver hold many membrane-bound enzymes, among them those of drug oxidation.)
Data set [10] addresses Phosphatidylinositol 4,5-bisphosphate 3-kinase catalytic subunit gamma isoform (Homo sapiens, UniProt P48736). The data set can be described thus: Inhibition of human PI3Kgamma by ADP accumulation based HTRF assay. The following applies: read-out: Ki(app).
The target in data set [11] is CYP2C19 (Homo sapiens, UniProt P33261). Kind of data set: Inhibition of CYP2C19 at 10 uM. It counts as ADME.
Data set [12] addresses T1, CYP1A2 (Homo sapiens, UniProt P05177).
T1 sequence (P05177 whole entry): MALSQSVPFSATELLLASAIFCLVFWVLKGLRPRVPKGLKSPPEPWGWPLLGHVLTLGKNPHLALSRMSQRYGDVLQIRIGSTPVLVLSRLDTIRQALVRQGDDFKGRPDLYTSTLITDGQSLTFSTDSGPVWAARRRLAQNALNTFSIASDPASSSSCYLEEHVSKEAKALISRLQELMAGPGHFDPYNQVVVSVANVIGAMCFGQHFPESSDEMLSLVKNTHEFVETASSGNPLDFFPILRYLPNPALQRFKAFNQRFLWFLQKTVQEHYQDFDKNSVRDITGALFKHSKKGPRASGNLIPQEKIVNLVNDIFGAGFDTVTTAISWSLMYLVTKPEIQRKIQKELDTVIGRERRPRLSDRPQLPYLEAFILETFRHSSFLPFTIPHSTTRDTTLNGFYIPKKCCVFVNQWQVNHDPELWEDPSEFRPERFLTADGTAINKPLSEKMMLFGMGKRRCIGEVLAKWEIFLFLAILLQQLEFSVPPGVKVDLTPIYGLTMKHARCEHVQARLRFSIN
The data set can be described thus: Inhibition of CYP1A2 at 10 uM. In kind it is ADME.

Chain of PI3-kinase p110-alpha/p85-alpha (P27986 whole entry, canonical isoform): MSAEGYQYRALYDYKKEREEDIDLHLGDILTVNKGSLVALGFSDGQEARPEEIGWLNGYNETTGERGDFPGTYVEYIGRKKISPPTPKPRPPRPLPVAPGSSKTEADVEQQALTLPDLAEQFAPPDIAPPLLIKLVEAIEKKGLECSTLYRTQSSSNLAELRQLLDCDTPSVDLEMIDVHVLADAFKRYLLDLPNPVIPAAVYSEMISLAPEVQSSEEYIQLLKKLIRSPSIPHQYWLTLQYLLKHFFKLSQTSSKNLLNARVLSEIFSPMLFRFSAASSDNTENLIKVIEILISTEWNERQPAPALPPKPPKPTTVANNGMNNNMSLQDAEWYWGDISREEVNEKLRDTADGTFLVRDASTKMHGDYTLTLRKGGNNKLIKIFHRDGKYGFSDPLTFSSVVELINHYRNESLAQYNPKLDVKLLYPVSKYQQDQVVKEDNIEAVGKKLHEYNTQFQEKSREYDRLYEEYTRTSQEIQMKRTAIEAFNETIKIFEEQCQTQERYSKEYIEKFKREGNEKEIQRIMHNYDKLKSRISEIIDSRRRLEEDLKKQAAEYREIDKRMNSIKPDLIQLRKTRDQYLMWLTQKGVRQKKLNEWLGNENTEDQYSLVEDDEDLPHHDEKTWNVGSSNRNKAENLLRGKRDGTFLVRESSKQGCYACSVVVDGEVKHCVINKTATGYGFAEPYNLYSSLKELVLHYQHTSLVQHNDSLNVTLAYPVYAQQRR
Chain of PI3-kinase p110-alpha/p85-alpha (P42336 whole entry, canonical isoform): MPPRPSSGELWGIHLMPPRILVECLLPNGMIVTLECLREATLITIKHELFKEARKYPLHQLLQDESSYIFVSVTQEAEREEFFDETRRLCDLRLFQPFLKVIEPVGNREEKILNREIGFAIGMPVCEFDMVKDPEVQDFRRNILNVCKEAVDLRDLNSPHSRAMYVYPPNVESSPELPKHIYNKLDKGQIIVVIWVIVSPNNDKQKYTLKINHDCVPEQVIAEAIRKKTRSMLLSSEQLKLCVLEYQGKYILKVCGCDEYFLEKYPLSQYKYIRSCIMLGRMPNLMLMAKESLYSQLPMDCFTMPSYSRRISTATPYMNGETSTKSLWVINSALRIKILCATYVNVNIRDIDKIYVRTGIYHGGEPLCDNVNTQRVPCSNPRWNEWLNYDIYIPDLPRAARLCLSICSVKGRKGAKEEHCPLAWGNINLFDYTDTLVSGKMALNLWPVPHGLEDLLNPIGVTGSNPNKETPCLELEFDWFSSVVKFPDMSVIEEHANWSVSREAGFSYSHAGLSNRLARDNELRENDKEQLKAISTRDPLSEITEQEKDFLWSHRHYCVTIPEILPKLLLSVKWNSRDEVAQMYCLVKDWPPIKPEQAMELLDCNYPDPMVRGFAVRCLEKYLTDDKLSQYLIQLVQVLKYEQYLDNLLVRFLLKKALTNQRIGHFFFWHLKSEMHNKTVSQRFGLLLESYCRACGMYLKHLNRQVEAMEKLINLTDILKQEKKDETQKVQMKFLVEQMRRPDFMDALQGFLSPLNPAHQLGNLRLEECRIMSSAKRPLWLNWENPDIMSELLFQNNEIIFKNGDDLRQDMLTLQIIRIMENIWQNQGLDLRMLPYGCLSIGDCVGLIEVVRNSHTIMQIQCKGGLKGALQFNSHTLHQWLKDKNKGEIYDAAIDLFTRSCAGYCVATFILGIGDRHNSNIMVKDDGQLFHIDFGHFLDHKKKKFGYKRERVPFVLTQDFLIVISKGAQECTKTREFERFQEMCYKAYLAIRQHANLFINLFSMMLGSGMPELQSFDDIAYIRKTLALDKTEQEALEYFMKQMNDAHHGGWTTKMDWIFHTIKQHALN
Chain of Phosphatidylinositol 4,5-bisphosphate 3-kinase catalytic subunit alpha isoform (P42336 whole entry, canonical isoform): as above
Chain of CYP2D6 (P10635 whole entry): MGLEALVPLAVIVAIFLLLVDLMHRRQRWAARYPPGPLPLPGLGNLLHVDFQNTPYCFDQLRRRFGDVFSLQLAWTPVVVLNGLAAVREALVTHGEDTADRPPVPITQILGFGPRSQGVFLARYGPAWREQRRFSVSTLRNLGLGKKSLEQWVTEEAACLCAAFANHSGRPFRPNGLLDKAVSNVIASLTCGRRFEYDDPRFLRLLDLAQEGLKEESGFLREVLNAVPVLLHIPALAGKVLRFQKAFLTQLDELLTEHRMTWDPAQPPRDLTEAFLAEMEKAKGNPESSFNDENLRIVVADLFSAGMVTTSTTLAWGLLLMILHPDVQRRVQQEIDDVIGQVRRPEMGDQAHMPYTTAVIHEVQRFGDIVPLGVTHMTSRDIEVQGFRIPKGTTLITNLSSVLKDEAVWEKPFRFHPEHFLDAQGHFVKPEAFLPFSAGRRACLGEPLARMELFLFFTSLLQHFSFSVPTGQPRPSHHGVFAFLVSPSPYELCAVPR
Chain of CYP2C19 (P33261 whole entry): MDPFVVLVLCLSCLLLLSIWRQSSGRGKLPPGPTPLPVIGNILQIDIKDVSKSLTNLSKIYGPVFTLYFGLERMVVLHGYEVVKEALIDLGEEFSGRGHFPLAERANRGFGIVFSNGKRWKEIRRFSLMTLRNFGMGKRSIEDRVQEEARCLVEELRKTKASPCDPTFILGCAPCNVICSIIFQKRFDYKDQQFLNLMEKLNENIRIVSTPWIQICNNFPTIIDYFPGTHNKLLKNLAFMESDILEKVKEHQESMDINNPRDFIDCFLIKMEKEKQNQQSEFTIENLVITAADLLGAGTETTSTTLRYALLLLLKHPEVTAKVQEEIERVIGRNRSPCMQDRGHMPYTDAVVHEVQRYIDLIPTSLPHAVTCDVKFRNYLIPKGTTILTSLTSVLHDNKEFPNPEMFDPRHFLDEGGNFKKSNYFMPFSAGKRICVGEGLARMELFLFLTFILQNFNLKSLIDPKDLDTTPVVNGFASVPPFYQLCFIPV
Chain of CYP3A4 (P08684 whole entry): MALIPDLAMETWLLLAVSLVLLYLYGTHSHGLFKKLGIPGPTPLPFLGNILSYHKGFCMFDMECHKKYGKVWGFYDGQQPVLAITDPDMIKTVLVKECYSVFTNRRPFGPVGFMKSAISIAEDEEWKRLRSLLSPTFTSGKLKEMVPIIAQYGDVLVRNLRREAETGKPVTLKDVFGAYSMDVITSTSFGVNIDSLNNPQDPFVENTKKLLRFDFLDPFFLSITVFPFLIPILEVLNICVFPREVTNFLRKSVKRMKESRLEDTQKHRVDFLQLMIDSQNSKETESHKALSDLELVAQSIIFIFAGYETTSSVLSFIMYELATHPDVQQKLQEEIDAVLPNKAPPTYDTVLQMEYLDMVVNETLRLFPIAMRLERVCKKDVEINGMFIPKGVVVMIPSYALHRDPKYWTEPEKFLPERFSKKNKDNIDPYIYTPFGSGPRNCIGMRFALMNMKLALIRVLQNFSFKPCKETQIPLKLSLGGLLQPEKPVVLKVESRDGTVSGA
Chain of CYP2C9 (P11712 whole entry): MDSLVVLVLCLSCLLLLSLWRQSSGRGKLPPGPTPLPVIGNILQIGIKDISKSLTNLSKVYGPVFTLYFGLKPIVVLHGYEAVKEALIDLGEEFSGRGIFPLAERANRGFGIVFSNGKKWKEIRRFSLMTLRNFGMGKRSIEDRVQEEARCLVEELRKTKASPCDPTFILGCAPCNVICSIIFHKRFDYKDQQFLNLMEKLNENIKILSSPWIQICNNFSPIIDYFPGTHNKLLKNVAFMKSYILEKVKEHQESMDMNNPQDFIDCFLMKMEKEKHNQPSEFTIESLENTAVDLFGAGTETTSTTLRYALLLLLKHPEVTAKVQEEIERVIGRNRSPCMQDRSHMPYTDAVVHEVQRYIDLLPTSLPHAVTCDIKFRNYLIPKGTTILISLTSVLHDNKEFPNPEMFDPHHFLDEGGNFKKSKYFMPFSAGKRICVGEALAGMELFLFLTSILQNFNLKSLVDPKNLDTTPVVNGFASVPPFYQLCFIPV
Chain of Phosphatidylinositol 4,5-bisphosphate 3-kinase catalytic subunit gamma isoform (P48736 whole entry, canonical isoform): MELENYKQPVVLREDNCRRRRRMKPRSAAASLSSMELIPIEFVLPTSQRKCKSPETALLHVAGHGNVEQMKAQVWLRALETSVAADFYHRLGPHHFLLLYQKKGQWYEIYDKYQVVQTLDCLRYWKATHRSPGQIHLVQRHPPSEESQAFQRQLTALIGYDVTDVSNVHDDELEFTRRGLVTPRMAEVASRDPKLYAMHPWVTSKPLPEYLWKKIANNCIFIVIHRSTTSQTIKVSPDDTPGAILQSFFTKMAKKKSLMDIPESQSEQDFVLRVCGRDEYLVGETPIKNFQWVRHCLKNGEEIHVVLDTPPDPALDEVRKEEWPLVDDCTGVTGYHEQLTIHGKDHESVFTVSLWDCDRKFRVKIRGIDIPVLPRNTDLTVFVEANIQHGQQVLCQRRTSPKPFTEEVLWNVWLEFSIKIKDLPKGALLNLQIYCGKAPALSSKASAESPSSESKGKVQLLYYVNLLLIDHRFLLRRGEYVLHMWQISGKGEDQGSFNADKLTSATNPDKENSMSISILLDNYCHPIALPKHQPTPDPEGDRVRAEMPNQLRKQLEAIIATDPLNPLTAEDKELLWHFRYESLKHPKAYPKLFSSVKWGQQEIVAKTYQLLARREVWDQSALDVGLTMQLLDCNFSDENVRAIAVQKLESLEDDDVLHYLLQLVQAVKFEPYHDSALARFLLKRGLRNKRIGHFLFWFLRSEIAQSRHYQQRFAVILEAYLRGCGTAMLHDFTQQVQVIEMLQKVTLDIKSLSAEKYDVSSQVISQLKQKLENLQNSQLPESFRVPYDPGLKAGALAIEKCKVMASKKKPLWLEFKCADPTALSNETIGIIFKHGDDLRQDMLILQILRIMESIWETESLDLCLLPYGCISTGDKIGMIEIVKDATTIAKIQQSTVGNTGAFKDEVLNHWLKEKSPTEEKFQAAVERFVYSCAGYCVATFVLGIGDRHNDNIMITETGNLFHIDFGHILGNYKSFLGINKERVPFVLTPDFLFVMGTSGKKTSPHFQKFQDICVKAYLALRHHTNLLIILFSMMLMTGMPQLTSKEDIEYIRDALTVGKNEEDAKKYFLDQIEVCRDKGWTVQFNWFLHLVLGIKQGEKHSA

In the case of `CS(=O)(=O)N1CC2CN(Cc3cn4cc(-c5cnc(N)nc5)nc(N5CCOCC5)c4n3)CC2C1` (centres undefined), inhibition in data set [1] was half-maximal at 117 nM (IC50).
Regarding `CN(C)CC(=O)N1CCN(Cc2cn3cc(-c4cnc(N)nc4)nc(N4CCOCC4)c3n2)CC1`, the IC50 in [2] worked out at 480 nM.
On to `CS(=O)(=O)N1CCN(Cc2cn3cc(-c4ccc5[nH]ccc5c4)nc(N4CCOCC4)c3n2)CC1`, for which the IC50 in [1] was over 10000 nM.
`COc1cncc(-c2cn3cc(CN4CCN(S(C)(=O)=O)CC4)nc3c(N3CCOCC3)n2)c1` displayed an IC50 in data set [1] of 1110 nM.
As to `CS(=O)(=O)C1CCN(Cc2cn3cc(-c4cnc(N)nc4)nc(N4CCOCC4)c3n2)CC1`, the IC50 in [1] turned out to be 28.7 nM.
For `CS(=O)(=O)N1CCN(Cc2cn3cc(-c4cnc(N)nc4C(F)(F)F)nc(N4CCOCC4)c3n2)CC1`, the Ki worked out at 5.06 nM in data set [3], 79.8 nM in data set [7], 7.4 nM in data set [1] and 26.7 nM in [10]. The results for the remaining at 0.25 h, 1 µM in data set [4] and in data set [9] were 96% and 82%, respectively. The inhibition at 10 µM in data set [5], in [6], in [8], in data set [11] and in data set [12] was under 30% each time. The IC50 in data set [2] was determined as 10.2 nM; in data set [1], 6.8 nM.
On to `CS(=O)(=O)N1CCN(Cc2cn3cc(-c4ccc5[nH]ncc5c4)nc(N4CCOCC4)c3n2)CC1`, for which the IC50 in [1] is over 10000 nM.
The same measure, in the same setting: the same measure for `Cc1ncc(-c2nc(N3CCOCC3)c3nc(CN4CCN(S(C)(=O)=O)CC4)cn3c2Cl)cn1`: 21.6 nM.
In data set [1], `COc1ncc(-c2cn3cc(CN4CCN(S(C)(=O)=O)CC4)nc3c(N3CCOCC3)n2)cn1` yielded an IC50 of 160 nM.
`CS(=O)(=O)N1CCN(Cc2cn3cc(-c4cnc(N)c(C#N)c4)nc(N4CCOCC4)c3n2)CC1` came in with an IC50 in data set [1] of 1010 nM.
On the same count and under the same terms, with `CS(=O)(=O)N1CCN(Cc2cn3cc(-c4cccc5[nH]ccc45)nc(N4CCOCC4)c3n2)CC1` the figure was 2500 nM.
Take `C[C@@H]1CN(S(C)(=O)=O)C[C@H](C)N1Cc1cn2cc(-c3cnc(N)nc3)nc(N3CCOCC3)c2n1`: the IC50 came to 244 nM in data set [2] and 3.2 nM in [1].
As for `CS(=O)(=O)N1CCN(Cc2cn3c(Cl)c(-c4cnc(N)nc4C(F)(F)F)nc(N4CCOCC4)c3n2)CC1`, the IC50 in data set [1] came to 6.8 nM.
The compound `CNc1ncc(-c2cn3cc(CN4CCN(S(C)(=O)=O)CC4)nc3c(N3CCOCC3)n2)cn1` gave an IC50 in data set [1] of 16.4 nM.
Consider `CS(=O)(=O)N1CCN(Cc2cn3cc(-c4cncnc4)nc(N4CCOCC4)c3n2)CC1`, for which, in [1], the IC50 worked out at 123 nM.
The same measure, in the same setting: with `CNc1ncc(-c2nc(N3CCOCC3)c3nc(CN4CCN(S(C)(=O)=O)CC4)cn3c2Cl)cn1` the figure was 11.4 nM.
As for `C[C@H]1CN(Cc2cn3cc(-c4cnc(N)nc4)nc(N4CCOCC4)c3n2)CCN1S(C)(=O)=O`, the Ki in [3] is 14.7 nM; in data set [7], 319 nM; in data set [1], 6.2 nM; in data set [10] it was 124 nM. Also, the IC50 in [2] is 120 nM; in [1] it was 5.5 nM.
Consider `C[C@H](O)C(=O)N1CCN(Cc2cn3cc(-c4cnc(N)nc4)nc(N4CCOCC4)c3n2)CC1`, for which, in [1], the IC50 was determined as 34.6 nM.
Same read-out and setting: the same measure for `Cc1nc(N)ncc1-c1nc(N2CCOCC2)c2nc(CN3CCN(S(C)(=O)=O)CC3)cn2c1Cl`: 13 nM; for `C[C@@H]1CN(Cc2cn3cc(-c4cnc(N)nc4)nc(N4CCOCC4)c3n2)CCN1S(C)(=O)=O`: 2.6 nM.
Compound `CS(=O)(=O)N1C2CCC1CN(Cc1cn3cc(-c4cnc(N)nc4)nc(N4CCOCC4)c3n1)C2` came in with an IC50 in data set [1] of 108 nM.
Consider `CS(=O)(=O)N1CCN(Cc2cn3c(Cl)c(-c4cnc5[nH]ccc5c4)nc(N4CCOCC4)c3n2)CC1`, for which inhibition in data set [1] was half-maximal at 166 nM (IC50).
With `CCS(=O)(=O)N1CCN(Cc2cn3cc(-c4cnc(N)nc4)nc(N4CCOCC4)c3n2)CC1`, the remaining at 0.25 h, 1 µM in data set [4] came to 64%; in [9] it was 98%. In addition, the inhibition at 10 µM in data set [5], in data set [6], in data set [8], in data set [11] and in data set [12] was under 30% in each case. For the same compound, the IC50 stood at 98.5 nM in data set [2] and 13.3 nM in [1].
